Consider 5 compounds from ChEMBL document CHEMBL1131211, “Cyclopropane-derived peptidomimetics. Design, synthesis, evaluation, and structure of novel HIV-1 protease inhibitors” (J Med Chem, 1998).

This assay has as its target Human immunodeficiency virus type 1 protease (Human immunodeficiency virus 1, UniProt Q72874). As to the kind of experiment: Inhibitory activity was measured against wild-type HIV-1 protease.

Broadly, the Ki is the dissociation constant of the complex between target and ligand, obtained from inhibition or displacement. `C[C@H]1[C@@H](C(=O)NCc2ccccc2)[C@@H]1C(=O)N[C@@H](Cc1ccccc1)[C@@H](O)[C@H](O)[C@H](Cc1ccccc1)NC(=O)[C@@H]1[C@@H](C)[C@H]1C(=O)NCc1ccccc1` came in with a Ki of 0.16 nM.

In turn, `CC(C)[C@H](NC(=O)N(C)Cc1ccccn1)C(=O)N[C@@H](Cc1ccccc1)[C@@H](O)[C@H](O)[C@H](Cc1ccccc1)NC(=O)[C@@H](NC(=O)N(C)Cc1ccccn1)C(C)C` returned a Ki of 0.11 nM.

`CN(Cc1ccccn1)C(=O)[C@H]1[C@H](C(=O)N[C@@H](Cc2ccccc2)[C@@H](O)[C@H](O)[C@H](Cc2ccccc2)NC(=O)[C@H]2[C@H](C(=O)N(C)Cc3ccccn3)C2(C)C)C1(C)C` yielded a Ki of 80 nM.

`C[C@@H]1[C@@H](C(=O)NCc2ccccc2)[C@@H]1C(=O)N[C@@H](Cc1ccccc1)[C@@H](O)[C@H](O)[C@H](Cc1ccccc1)NC(=O)[C@@H]1[C@H](C)[C@H]1C(=O)NCc1ccccc1` registered an inhibitory constant (Ki) of 0.47 nM.

On to `CC1(C)[C@@H](C(=O)NCc2ccccc2)[C@@H]1C(=O)N[C@@H](Cc1ccccc1)[C@@H](O)[C@H](O)[C@H](Cc1ccccc1)NC(=O)[C@H]1[C@H](C(=O)NCc2ccccc2)C1(C)C`, for which the affinity corresponds to a Ki of 0.31 nM.
